Source: US8093394B2, “Derivatives of 5-thioxylopyranose and use of same for treatment” (Laboratoires Fournier S.A., priority 2006, dated 2012)

Tested on: venous thrombosis
Assay: venous thrombosis test in rats, activity via the oral route (venous stasis under hypercoagulation with factor Xa, Wessler technique)
Format: in vivo
Details: dose 6 mg/kg, thrombosis induced 2 h after administration, male Wistar rats
Protocol: The antithrombotic activity of the compounds according to the invention was studied in vivo in rats by virtue of a test in which a venous thrombosis is reproduced. The venous thrombosis was induced according to the protocol described in Thromb. Haemost., 1992, 67(1), 176-179. The activity via the oral route was studied according to the procedure described below. The experiment is carried out on non-fasting male Wistar rats weighing from 250 to 280 g and divided into groups of 10 animals each. The test products are administered orally (intubation) in solution or in suspension in a 0.5% solution of methylcellulose in water. The concentrations of the compounds are calculated so as to bring about the absorption of an amount of solution of 10 ml/kg orally. A thrombosis is induced at a time T after the administration of the product and the thrombus formed is removed and weighed. In order to induce this thrombosis, a venous stasis is brought about under hypercoagulation, according to the technique described by Wessler (J. Applied Physiol., 1959, 943-946), using a solution of activated factor X (Xa), supplied by Biogenic (Montpellier) and comprising a dose of 7.5 nKat/kg, as hypercoagulant. The venous stasis is brought about 10 seconds exactly after the injection of the hypercoagulant. The activity of the test compounds is monitored at various doses, after they have been administered. The thrombosis is induced 2 hours after the administration of the compound. By way of example, the results of the above tests are given in the following table for a few compounds according to the invention (the activity is expressed by the percentage of inhibition of the formation of the thrombus, observed in the presence of the compound according to the invention, with respect to the weight of the thrombus formed in the absence of the compound).

With `Cc1noc(C)c1-c1ncc(O[C@@H]2SC[C@@H](O)[C@H](O)[C@H]2O)cc1F` [Example 226, 6-(3,5-Dimethyl-4-isoxazolyl)-5-fluoro-3-pyridinyl 5-thio-β-D-xylopyranoside] the “Activity (percentage of inhibition of the formation of the thrombus, with respect to the weight of the thrombus formed in the absence of the compound)” value was 97%.
In the case of `O[C@@H]1[C@@H](O)[C@H](Oc2cncc(-c3ccc(Cl)nc3)c2)SC[C@H]1O` [Example 30, 5-(6-Chloro-3-pyridinyl)-3-pyridinyl 5-thio-β-D-xylopyranoside], the “Activity (percentage of inhibition of the formation of the thrombus, with respect to the weight of the thrombus formed in the absence of the compound)” value was 97%.
With `O[C@@H]1[C@@H](O)[C@H](Oc2ccc(-c3ccncc3)nc2F)SC[C@H]1O` [Example 22, 2-Fluoro-6-(4-pyridinyl)-3-pyridinyl 5-thio-β-D-xylopyranoside] the “Activity (percentage of inhibition of the formation of the thrombus, with respect to the weight of the thrombus formed in the absence of the compound)” value was 100%.
With `O[C@@H]1[C@@H](O)[C@H](Oc2ccnc(-c3ccncc3)c2)SC[C@H]1O` [Example 130, 2-(4-Pyridinyl)-4-pyridinyl 5-thio-β-D-xylopyranoside] the “Activity (percentage of inhibition of the formation of the thrombus, with respect to the weight of the thrombus formed in the absence of the compound)” value was 91%.
With `Cc1oncc1-c1ccc(O[C@@H]2SC[C@@H](O)[C@H](O)[C@H]2O)cn1` [Example 140, 6-(5-Methyl-4-isoxazolyl)-3-pyridinyl 5-thio-β-D-xylopyranoside] the “Activity (percentage of inhibition of the formation of the thrombus, with respect to the weight of the thrombus formed in the absence of the compound)” value was 96%.
`O[C@@H]1[C@@H](O)[C@H](Oc2ccc(-c3cccnc3Cl)nc2)SC[C@H]1O` [Example 40, 6-(2-Chloro-3-pyridinyl)-3-pyridinyl 5-thio-β-D-xylopyranoside] was tested, and the “Activity (percentage of inhibition of the formation of the thrombus, with respect to the weight of the thrombus formed in the absence of the compound)” value was 96%.
In the case of `Cc1cncc(-c2ccc(O[C@@H]3SC[C@@H](O)[C@H](O)[C@H]3O)cn2)c1` [Example 142, 6-(5-Methyl-3-pyridinyl)-3-pyridinyl 5-thio-β-D-xylopyranoside], the “Activity (percentage of inhibition of the formation of the thrombus, with respect to the weight of the thrombus formed in the absence of the compound)” value was 97%.
`O[C@@H]1[C@@H](O)[C@H](Oc2ccc(-c3cccs3)nc2)SC[C@H]1O` [Example 108, 6-(2-Thienyl)-3-pyridinyl 5-thio-β-D-xylopyranoside] was tested, and the “Activity (percentage of inhibition of the formation of the thrombus, with respect to the weight of the thrombus formed in the absence of the compound)” value was 95%.
In the case of `Cn1cc(-c2ncc(O[C@@H]3SC[C@@H](O)[C@H](O)[C@H]3O)cc2F)cn1` [Example 224, 5-Fluoro-6-(1-methyl-1H-pyrazol-4-yl)-3-pyridinyl 5-thio-β-D-xylopyranoside], the “Activity (percentage of inhibition of the formation of the thrombus, with respect to the weight of the thrombus formed in the absence of the compound)” value was 99%.
In the case of `O[C@@H]1[C@@H](O)[C@H](Oc2ccc(-c3ccncc3)nc2Cl)SC[C@H]1O` [Example 24, 2-Chloro-6-(4-pyridinyl)-3-pyridinyl 5-thio-β-D-xylopyranoside], the “Activity (percentage of inhibition of the formation of the thrombus, with respect to the weight of the thrombus formed in the absence of the compound)” value was 96%.
With `O[C@@H]1[C@@H](O)[C@H](Oc2ccc(-c3ccncc3)nc2)SC[C@H]1O` [Example 122, 6-(4-Pyridinyl)-3-pyridinyl 5-thio-β-D-xylopyranoside] the “Activity (percentage of inhibition of the formation of the thrombus, with respect to the weight of the thrombus formed in the absence of the compound)” value was 93%.
